Data published in patent US11098010B2 (priority 2017, dated 2021).
pEC50: −log10 of the molar value. Counter-ions that a name gives are not always drawn. Like-named read-outs stand apart in the source and are kept apart here.

Test system: HBV rcDNA in HepDE19 cells
Test: HepDE19 assay with bDNA quantitation of HBV rcDNA
Type: cell-based, hepatitis B virus (HBV)
[1] = Hepatitis B virus, HepDE19, 168 h, HepDE19 cells, inhibition of rcDNA formation, 7 day incubation, top concentration 25 μM; read-out: DE-19 bDNA EC50
[2] = read-out: DE-19 bDNA EC50; HepDE19 cells, inhibition of rcDNA formation, 7 day incubation, top concentration 25 μM
[3] = HepDE19 cells, inhibition of rcDNA formation, 7 day incubation, top concentration 25 μM; read-out: DE-19 bDNA EC50
[4] = Hepatitis B virus, HepDE19, 168 h, read-out: DE-19 bDNA EC50 (μM), HepDE19 cells, inhibition of rcDNA formation, 7 day incubation, top concentration 25 μM

Compound | pEC50 [1] | EC50 [4] | also measured
Cc1cc(NC(=O)c2ccc(F)c3c2OCC3NC(=O)OCc2ccccn2)ccc1F (centres unmarked) [Compound 205, O-Pyridin-2-ylmethyl, N-(4-fluoro-7-((4-fluoro-3-methylphenyl)carbamoyl)-2,3-dihydrobenzofuran-3-yl) carbamate] | 5.43 |  | 
Cn1ccc(S(=O)(=O)N[C@H]2CCc3c(C(=O)Nc4ccc(F)c(Cl)c4)ccc(F)c32)n1 [Compound 101, (S)—N-(3-Chloro-4-fluorophenyl)-7-fluoro-1-((1-methyl-1H-pyrazole)-3-sulfonamido)-2,3-dihydro-1H-indene-4-carboxamide] | 6.14 |  | 
COC(=O)NC1CSc2c(C(=O)Nc3ccc(F)c(Cl)c3)ccc(F)c21 (centres unmarked) [Compound 58, O-Methyl, N-(7-((3-chloro-4-fluorophenyl)carbamoyl)-4-fluoro-2,3-dihydrobenzo[b]thiophen-3-yl) carbamate] |  |  | pEC50 [2]: 6.10
O=C(NC1CSc2c(C(=O)Nc3ccc(F)c(Cl)c3)cccc21)OCc1ccccn1 (centres unmarked) [Compound 35, O-Pyridin-2-ylmethyl, N-(7-((3-chloro-4-fluorophenyl)carbamoyl)-2,3-dihydrobenzo[b]thiophen-3-yl) carbamate] |  |  | pEC50 [3]: 6.11
N[C@H]1CCc2c(C(=O)Nc3ccc(F)c(Cl)c3)ccc(F)c21 [Compound 13, (S)-1-Amino-N-(3-chloro-4-fluorophenyl)-7-fluoro-2,3-dihydro-1H-indene-4-carboxamide] | < 4.60 |  | 
COC(=O)NC1COc2c(C(=O)Nc3ccc(F)c(F)c3)cccc21 (centres unmarked) [Compound 6, O-Methyl, N-(7-((3,4-difluorophenyl)carbamoyl)-2,3-dihydrobenzofuran-3-yl) carbamate] |  |  | pEC50 [2]: 5.89
O=C(N[C@H]1CCc2c(C(=O)Nc3ccc(F)c(Cl)c3)ccc(F)c21)OCC(=O)N1CCCC1 [Compound 26, O-2-Oxo-2-(pyrrolidin-1-yl)ethyl, N—(S)-(4-((3-chloro-4-fluorophenyl)carbamoyl)-7-fluoro-2,3-dihydro-1H-inden-1-yl) carbamate] |  | 0.44 µM | 
COC(=O)NC1c2c(F)ccc(C(=O)Nc3ccc(F)c(Cl)c3)c2CC1(F)F (centres unmarked) [Compound 210, O-methyl, N-((4-((3-chloro-4-fluorophenyl)carbamoyl)-2,2,7-trifluoro-2,3-dihydro-1H-inden-1-yl) carbamate] |  |  | pEC50 [3]: 4.82
O=C(N[C@H]1CCc2c(C(=O)Nc3ccc(F)c(Cl)c3)ccc(F)c21)OCc1cccc(N2CCOCC2)n1 [Compound 42, O-(6-Morpholinopyridin-2-yl)methyl, N—(S)-(4-((3-chloro-4-fluorophenyl)carbamoyl)-7-fluoro-2,3-dihydro-1H-inden-1-yl) carbamate] |  | 0.27 µM | 
O=C(N[C@H]1CCc2c(C(=O)Nc3ccc(F)c(Cl)c3)ccc(F)c21)OCC1CCN(CC(F)(F)F)CC1 [Compound 62, O-(1-(2,2,2-Trifluoroethyl)piperidin-4-yl)methyl, N—(S)-(4-((3-chloro-4-fluorophenyl)carbamoyl)-7-fluoro-2,3-dihydro-1H-inden-1-yl) carbamate] |  | 1.8 µM | 
CS(=O)(=O)N[C@H]1CCc2c(C(=O)Nc3ccc(F)c(Cl)c3)ccc(F)c21 [Compound 117, (S)—N-(3-chloro-4-fluorophenyl)-7-fluoro-1-(methylsulfonamido)-2,3-dihydro-1H-indene-4-carboxamide] | 6.28 |  | 
O=C(N[C@H]1CCc2c(C(=O)Nc3ccc(F)c(Cl)c3)ccc(F)c21)OCc1nc[nH]n1 [Compound 195, O-(1H-1,2,4-Triazol-3-yl)methyl, N—(S)-(4-((3-chloro-4-fluorophenyl)carbamoyl)-7-fluoro-2,3-dihydro-1H-inden-1-yl) carbamate] | 7.00 |  | 
O=C(N[C@H]1CCc2c(C(=O)Nc3ccc(F)c(Cl)c3)ccc(F)c21)OCc1cc(Cl)ccn1 [Compound 80, O-(4-Chloropyridin-2-yl)methyl, N—(S)-(4-((3-chloro-4-fluorophenyl)carbamoyl)-7-fluoro-2,3-dihydro-1H-inden-1-yl) carbamate Hydrochloride] |  | 0.33 µM | 
O=C(Nc1ccc(F)c(Cl)c1)c1ccc(F)c2c1CC[C@@H]2NC(=O)C1CC1 [Compound 179, (S)—N-(3-Chloro-4-fluorophenyl)-1-(cyclopropanecarboxamido)-7-fluoro-2,3-dihydro-1H-indene-4-carboxamide] | 6.85 |  | 
Cc1cccn2cc(COC(=O)N[C@H]3CCc4c(C(=O)Nc5ccc(F)c(Cl)c5)ccc(F)c43)nc12 [Compound 87, O-(8-Methylimidazo[1,2-a]pyridin-2-yl)methyl, N—(S)-(4-((3-chloro-4-fluorophenyl)carbamoyl)-7-fluoro-2,3-dihydro-1H-inden-1-yl) carbamate Hydrochloride] |  | 0.2 µM | 
O=C(Nc1ccc(F)c(Cl)c1)c1ccc(F)c2c1CC[C@@H]2O [Compound 81, (S)—N-(3-Chloro-4-fluorophenyl)-7-fluoro-1-hydroxy-2,3-dihydro-1H-indene-4-carboxamide] | 6.17 |  | 

Compound | pEC50 [1] | EC50 [4] | also measured
O=C(Nc1ccc(F)c(Cl)c1)c1ccc(F)c2c1CC[C@@H]2NS(=O)(=O)N1CCOCC1 [Compound 228, (S)—N-(3-Chloro-4-fluorophenyl)-7-fluoro-1-(morpholine-4-sulfonamido)-2,3-dihydro-1H-indene-4-carboxamide] | 6.70 |  | 
COc1cccc(COC(=O)N[C@H]2CCc3c(C(=O)Nc4ccc(F)c(Cl)c4)ccc(F)c32)n1 [Compound 44, O-(6-Methoxypyridin-2-yl)methyl, N—(S)-(4-((3-chloro-4-fluorophenyl)carbamoyl)-7-fluoro-2,3-dihydro-1H-inden-1-yl) carbamate] |  | 0.38 µM | 
O=C(Nc1ccc(F)c(Cl)c1)c1ccc(F)c2c1CC[C@@H]2Nc1nccs1 [Compound 146, (S)—N-(3-Chloro-4-fluorophenyl)-7-fluoro-1-(thiazol-2-ylamino)-2,3-dihydro-1H-indene-4-carboxamide] |  | 0.24 µM | 
Cn1ccc(CNC(=O)N[C@H]2CCc3c(C(=O)Nc4ccc(F)c(Cl)c4)ccc(F)c32)n1 [Compound 194] |  | 0.16 µM | 
Cn1ccnc1COC(=O)N[C@H]1CCc2c(C(=O)Nc3ccc(F)c(Cl)c3)ccc(F)c21 [Compound 137, O-(1-Methyl-1H-imidazol-2-yl)methyl, N—(S)-(4-((3-chloro-4-fluorophenyl)carbamoyl)-7-fluoro-2,3-dihydro-1H-inden-1-yl) carbamate] | 7.00 |  | 
O=C(N[C@H]1CCc2c(C(=O)Nc3ccc(F)c(Cl)c3)ccc(F)c21)OCCN1CCOCC1 [Compound 153, O-2-Morpholinoethyl, N—(S)-(4-((3-chloro-4-fluorophenyl)carbamoyl)-7-fluoro-2,3-dihydro-1H-inden-1-yl) carbamate] |  | 0.47 µM | 
O=C(N[C@H]1CCc2c(C(=O)Nc3ccc(F)c(Cl)c3)ccc(F)c21)OCc1cocn1 [Compound 93, O-Oxazol-4-ylmethyl, N—(S)-(4-((3-chloro-4-fluorophenyl)carbamoyl)-7-fluoro-2,3-dihydro-1H-inden-1-yl) carbamate] | 6.31 |  | 
O=C(NC1CCc2c(C(=O)Nc3ccc(F)c(Cl)c3)ccnc21)OCc1ccccn1 (centres unmarked) [Compound 267, O-Pyridin-2-ylmethyl, N-(4-((3-chloro-4-fluorophenyl)carbamoyl)-6,7-dihydro-5H-cyclopenta[b]pyridin-7-yl) carbamate] |  |  | pEC50 [3]: 5.31
O=C(N[C@H]1CCc2c(C(=O)Nc3ccc(F)c(Cl)c3)ccc(F)c21)OCCCO [Compound 155, O-3-Hydroxypropyl, N—(S)-(4-((3-chloro-4-fluorophenyl)carbamoyl)-7-fluoro-2,3-dihydro-1H-inden-1-yl) carbamate] |  | 24 µM | 
COC(=O)NC1c2cccc(C(=O)Nc3ccc(F)c(F)c3)c2CC1O (centres unmarked) [Compound 52, O-methyl, N-(4-((3,4-difluorophenyl)carbamoyl)-2-hydroxy-2,3-dihydro-1H-inden-1-yl) carbamate] |  |  | pEC50 [3]: 4.72
O=C1C[C@H](OC(=O)N[C@H]2CCc3c(C(=O)Nc4ccc(F)c(Cl)c4)ccc(F)c32)CN1 [Compound 166, O—(S)-5-Oxopyrrolidin-3-yl, N—((S)-4-((3-chloro-4-fluorophenyl)carbamoyl)-7-fluoro-2,3-dihydro-1H-inden-1-yl) carbamate] | 6.85 |  | 
COc1ccnc(COC(=O)N[C@H]2CCc3c(C(=O)Nc4ccc(F)c(Cl)c4)ccc(F)c32)c1 [Compound 140, O-(4-Methoxypyridin-2-yl)methyl, N—(S)-(4-((3-chloro-4-fluorophenyl)carbamoyl)-7-fluoro-2,3-dihydro-1H-inden-1-yl) carbamate] |  | 0.22 µM | 
Cc1cnc(COC(=O)N[C@H]2CCc3c(C(=O)Nc4ccc(F)c(Cl)c4)ccc(F)c32)cn1 [Compound 152, O-(5-Methylpyrazin-2-yl)methyl, N—(S)-(4-((3-chloro-4-fluorophenyl)carbamoyl)-7-fluoro-2,3-dihydro-1H-inden-1-yl)carbamate] |  | 0.07 µM | 
O=C(N[C@H]1CCc2c(C(=O)Nc3ccc(F)c(Cl)c3)cccc21)OC1CC1 [Compound 229, O-cyclopropyl, N-(S)-(4-((3-chloro-4-fluorophenyl)carbamoyl)-2,3-dihydro-1H-inden-1-yl) carbamate] |  |  | pEC50 [3]: 6.44
Cn1ccc(CCC(=O)N[C@H]2CCc3c(C(=O)Nc4ccc(F)c(Cl)c4)ccc(F)c32)n1 [Compound 171, (S)—N-(3-Chloro-4-fluorophenyl)-7-fluoro-1-(3-(1-methyl-1H-pyrazol-3-yl)propanamido)-2,3-dihydro-1H-indene-4-carboxamide] | 6.89 |  | 
COC(=O)NC1c2c(F)ccc(C(=O)Nc3ccc(F)c(Cl)c3)c2CC1OC (centres unmarked) [Compound 236, O-methyl, N-(4-((3-chloro-4-fluorophenyl)carbamoyl)-7-fluoro-2-methoxy-2,3-dihydro-1H-inden-1-yl)carbamate] | 6.47 |  | 
